The results in this text go back to patent US8143293B2, “Kinase inhibitors useful for the treatment of myleoprolific diseases and other proliferative diseases” (Deciphera Pharmaceuticals, LLC, priority 2007, dated 2012).

Test [1] addresses T1, BaF3 cells transfected with wild type p210 BCR-Abl (Homo sapiens, UniProt P00519).
T1 construct: fused on or other part: P11274 (Breakpoint cluster region protein)
Description: Ba/F3 p210 whole cell proliferation assay. Format: cell-based. The settings on record: 72 hours, Cell Titer Blue; read-out: Whole Cell Antiproliferation IC50, Ba/F3 p210 whole cell proliferation assay.

Test [2] deals with T2, C-Met kinase (SEQ ID NO:10) (Homo sapiens, UniProt P08581).
T2 construct: 956-1390, from Invitrogen, catalogue #PV3143; His6 (N-terminal leader MSYYHHHHHH... with TEV and thrombin sites) (N); purchased Invitrogen PV3143
T2 sequence (P08581 with tags, fused parts or gaps): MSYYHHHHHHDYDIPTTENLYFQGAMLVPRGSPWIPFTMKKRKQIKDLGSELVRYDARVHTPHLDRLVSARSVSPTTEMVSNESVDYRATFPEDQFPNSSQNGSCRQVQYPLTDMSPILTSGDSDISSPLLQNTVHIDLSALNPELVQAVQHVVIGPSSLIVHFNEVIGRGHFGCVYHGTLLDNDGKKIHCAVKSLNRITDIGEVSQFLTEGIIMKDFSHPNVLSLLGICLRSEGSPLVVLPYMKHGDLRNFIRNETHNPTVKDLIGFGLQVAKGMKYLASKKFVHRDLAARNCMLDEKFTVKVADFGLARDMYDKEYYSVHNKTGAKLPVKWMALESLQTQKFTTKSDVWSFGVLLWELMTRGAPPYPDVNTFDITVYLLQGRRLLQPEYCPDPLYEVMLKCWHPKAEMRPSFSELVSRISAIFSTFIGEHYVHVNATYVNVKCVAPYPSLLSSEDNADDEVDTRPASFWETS
Nature of the test: C-Met kinase (SEQ ID NO:10) assay, pyruvate kinase/lactate dehydrogenase coupled. The following applies: 0.5 h preincubation, ATP 100 μM; read-out: Biochemical IC50, c-Met Enzyme Assay. As for the experimental part: C-Met Kinase (SEQ ID NO:10) Assay
Activity of C-Met kinase (SEQ ID NO:10) was determined by following the production of ADP from the kinase reaction through coupling with the pyruvate kinase/lactate dehydrogenase system (e.g., Schindler, et al. Science (2000) 289, 1938-1942). In this assay, the oxidation of NADH (thus the decrease at A340 nm) was continuously monitored spectrophometrically. The reaction mixture (100 μl) contained C-Met (c-Met residues; 956-1390, from Invitrogen, catalogue #PV3143, […]), polyE4Y (1 mg/ml), MgCl2 (10 mM), pyruvate kinase (4 units), lactate dehydrogenase (0.7 units), phosphoenol pyruvate (1 mM), and NADH (0.28 mM) in 90 mM Tris buffer containing 0.25 mM DTT, 0.2% octyl-glucoside and 1% DMSO, pH 7.5. Test compounds were incubated with C-Met (SEQ ID NO:10) and other reaction reagents at 22° C. for 0.5 h before ATP (100 μM) was added to start the reaction. The absorption at 340 nm was monitored continuously for 2 hours at 30° C. on Polarstar Optima plate reader (BMG). The reaction rate was calculated using the 1.0 to 2.0 h time frame. Percent inhibition was obtained by comparison of reaction rate with that of a control (i.e. with no test compound). IC50 values were calculated from a series of percent inhibition values determined at a range of inhibitor concentrations using software routines as implemented in the GraphPad Prism software package.

The target in test [3] is T3, Abl kinase (SEQ ID NO: 1) (Homo sapiens, UniProt P00519).
T3 construct: purchased deCode Genetics
T3 sequence (P00519 with tags, fused parts or gaps): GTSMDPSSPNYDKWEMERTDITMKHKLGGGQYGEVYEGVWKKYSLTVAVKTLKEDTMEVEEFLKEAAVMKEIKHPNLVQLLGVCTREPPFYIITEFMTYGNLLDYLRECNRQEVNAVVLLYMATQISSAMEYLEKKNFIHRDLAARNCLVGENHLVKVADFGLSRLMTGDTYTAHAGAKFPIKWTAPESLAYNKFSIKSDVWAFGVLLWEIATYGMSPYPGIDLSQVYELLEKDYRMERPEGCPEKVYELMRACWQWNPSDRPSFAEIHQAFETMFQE
Description: Abl kinase (SEQ ID NO:1) assay, pyruvate kinase/lactate dehydrogenase coupled. The following applies: 2 h preincubation, ATP 500 μM; read-out: Biochemical IC50, Abl Enzyme Assay. Summed up:
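ADP formation was coupled to pyruvate kinase/lactate dehydrogenase, and NADH loss at 340 nm was followed continuously. Compounds were preincubated 2 h at 30° C before 500 μM ATP, and rates from 1.0–2.0 h gave % inhibition and IC50.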

A value given as a limit tells only on which side of the number the result lay.

T1 sequence (P00519 whole entry, change not shown, the tested form may be a part): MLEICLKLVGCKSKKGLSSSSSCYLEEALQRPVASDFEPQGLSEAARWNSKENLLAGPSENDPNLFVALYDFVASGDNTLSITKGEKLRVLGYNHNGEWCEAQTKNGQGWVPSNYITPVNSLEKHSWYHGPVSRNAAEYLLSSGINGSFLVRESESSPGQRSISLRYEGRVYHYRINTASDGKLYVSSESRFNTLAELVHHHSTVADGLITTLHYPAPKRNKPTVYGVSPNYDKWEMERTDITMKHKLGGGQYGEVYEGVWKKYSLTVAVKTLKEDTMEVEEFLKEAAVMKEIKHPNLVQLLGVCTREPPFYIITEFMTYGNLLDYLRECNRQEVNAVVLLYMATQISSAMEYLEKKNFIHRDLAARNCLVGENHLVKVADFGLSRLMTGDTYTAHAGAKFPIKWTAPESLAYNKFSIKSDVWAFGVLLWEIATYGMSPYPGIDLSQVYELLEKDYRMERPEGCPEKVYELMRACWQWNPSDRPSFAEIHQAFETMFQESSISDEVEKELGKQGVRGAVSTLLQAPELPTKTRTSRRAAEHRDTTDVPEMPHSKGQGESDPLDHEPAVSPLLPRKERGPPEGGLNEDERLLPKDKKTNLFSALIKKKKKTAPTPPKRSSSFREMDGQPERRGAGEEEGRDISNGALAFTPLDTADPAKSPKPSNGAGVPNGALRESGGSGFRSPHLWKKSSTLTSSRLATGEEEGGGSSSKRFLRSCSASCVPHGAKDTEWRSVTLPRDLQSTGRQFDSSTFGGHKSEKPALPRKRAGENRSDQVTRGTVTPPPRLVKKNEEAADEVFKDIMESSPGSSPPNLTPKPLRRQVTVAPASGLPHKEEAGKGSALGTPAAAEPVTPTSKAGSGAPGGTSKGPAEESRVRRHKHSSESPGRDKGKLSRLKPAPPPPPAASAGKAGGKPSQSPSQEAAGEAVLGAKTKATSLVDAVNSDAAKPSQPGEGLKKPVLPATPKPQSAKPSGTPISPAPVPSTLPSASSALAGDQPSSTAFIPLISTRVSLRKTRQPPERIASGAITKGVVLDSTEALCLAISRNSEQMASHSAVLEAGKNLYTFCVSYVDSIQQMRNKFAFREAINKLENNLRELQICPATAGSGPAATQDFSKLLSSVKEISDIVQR

On to `Cn1cc(-c2cc(Oc3ccc(NC(=O)Nc4cnc(C(C)(C)C)nc4N4CCOCC4)c(F)c3)ccn2)cn1` [Example 41, 1-(2-tert-butyl-4-morpholinopyrimidin-5-yl)-3-(2-fluoro-4-(2-(1-methyl-1H-pyrazol-4-yl)pyridin-4-yloxy)phenyl)urea], for which, in test [1], the GI50 was less than 1000 nM. The half-inhibitory concentration (IC50) in test [2] was less than 100000 nM; in test [3], less than 1000 nM.
Turning to `Cc1c(NC(=O)Nc2ccc(Oc3ccnc(-c4cnn(C)c4)c3)cc2F)cnn1C(C)(C)C` [Example 10, 1-(1-tert-butyl-5-methyl-1H-pyrazol-4-yl)-3-(2-fluoro-4-(2-(1-methyl-1H-pyrazol-4-yl)pyridin-4-yloxy)phenyl)urea], the GI50 in test [1] is less than 100 nM. Besides, the results for the half-inhibitory concentration (IC50) in test [2] and in test [3] were less than 10000 nM and less than 100 nM, respectively.
In the case of `CN(C)CCn1nc(C(C)(C)C)cc1NC(=O)Nc1ccc(Oc2ccnc(-c3cnn(C)c3)c2)cc1F` [Example 12, 1-(3-tert-butyl-1-(2-(dimethylamino)ethyl)-11H-pyrazol-5-yl)-3-(2-fluoro-4-(2-(1-methyl-1H-pyrazol-4-yl)pyridin-4-yloxy)phenyl)urea], the GI50 in test [1] was less than 100 nM. Besides, the 50% inhibitory concentration (IC50) in test [2] was less than 10000 nM; in test [3] it was less than 100 nM.
As for `Cn1cc(-c2cc(Oc3ccc(NC(=O)Nc4cncc(C(F)(F)F)c4)cc3)ccn2)cn1` [Example 6, 1-(4-(2-(1-methyl-1H-pyrazol-4-yl)pyridin-4-yloxy)phenyl)-3-(5-(trifluoromethyl)pyridin-3-yl)urea], in test [1], the GI50 is less than 100 nM. Moreover, the IC50 in test [2] is less than 10000 nM; in test [3], less than 100 nM.
For the molecule `Cn1cc(-c2cc(Oc3ccc(NC(=O)Nc4cncc(C(F)(F)F)c4)c(F)c3)ccn2)cn1` [Example 21, 1-(2-fluoro-4-(2-(1-methyl-1H-pyrazol-4-yl)pyridin-4-yloxy)phenyl)-3-(5-(trifluoromethyl)pyridin-3-yl)urea], the GI50 in test [1] is less than 100 nM. In addition, the IC50 in test [2] is less than 1000 nM; in test [3], less than 100 nM.
In the case of `Cn1cc(-c2cc(Oc3ccc(NC(=O)Nc4cc(C(F)(F)F)cnc4-c4cnn(C)c4)c(F)c3)ccn2)cn1` [Example 42, 1-(2-fluoro-4-(2-(1-methyl-1H-pyrazol-4-yl)pyridin-4-yloxy)phenyl)-3-(2-(1-methyl-1H-pyrazol-4-yl)-5-(trifluoromethyl)pyridin-3-yl)urea], in test [1], the GI50 is less than 100 nM. The half-inhibitory concentration (IC50) in test [2] was less than 1000 nM; in test [3], less than 100 nM.
Regarding `Cn1cc(-c2cc(Oc3ccc(NC(=O)Nc4cnn(C(C)(C)C)c4C(F)(F)F)c(F)c3)ccn2)cn1` [Example 9, 1-(1-tert-butyl-5-(trifluoromethyl)-1H-pyrazol-4-yl)-3-(2-fluoro-4-(2-(1-methyl-1H-pyrazol-4-yl)pyridin-4-yloxy)phenyl)urea], the GI50 in test [1] was less than 100 nM. Also, the half-inhibitory concentration (IC50) in test [2] is less than 10000 nM; in test [3] it was less than 100 nM.
Take `Cc1oc(C(C)(C)C)cc1NC(=O)Nc1ccc(Oc2ccnc(-c3cnn(C)c3)c2)cc1F` [Example 28, 1-(5-tert-butyl-2-methylfuran-3-yl)-3-(2-fluoro-4-(2-(1-methyl-1H-pyrazol-4-yl)pyridin-4-yloxy)phenyl)urea]: the GI50 in test [1] is less than 100 nM. The IC50 in test [2] was less than 10000 nM; in test [3], less than 100 nM.
Take `Cn1cc(-c2cc(Oc3ccc(NC(=O)Nc4cccc(C(F)(F)F)c4)c(F)c3)ccn2)cn1` [Example 3, 1-(2-fluoro-4-(2-(1-methyl-1H-pyrazol-4-yl)pyridin-4-yloxy)phenyl)-3-(3-(trifluoromethyl)phenyl)urea]: the GI50 in test [1] was less than 100 nM. The IC50 in test [2] is less than 1000 nM; in test [3] it was less than 100 nM.
As to `Cn1cc(-c2cc(Oc3ccc(NC(=O)Nc4cc(C(C)(C)C)nn4C)c(F)c3)ccn2)cn1` [Example 2, 1-(3-t-butyl-1-methyl-1H-pyrazol-5-yl)-3-(2-fluoro-4-(2-(1-methyl-1H-pyrazol-4-yl)pyridin-4-yloxy)phenyl)urea], the GI50 in test [1] was less than 100 nM. The half-inhibitory concentration (IC50) is less than 1000 nM in test [2] and less than 100 nM in test [3].
As to `Cn1cc(-c2cc(Oc3ccc(NC(=O)Nc4cnn(C5CCCC5)c4)c(F)c3)ccn2)cn1` [Example 15, 1-(1-cyclopentyl-1H-pyrazol-4-yl)-3-(2-fluoro-4-(2-(1-methyl-1H-pyrazol-4-yl)pyridin-4-yloxy)phenyl)urea], the GI50 in test [1] is less than 100 nM. Further, the half-maximal inhibitory concentration (IC50) in test [2] is less than 10000 nM; in test [3], less than 100 nM.
In the case of `Cn1cc(-c2cc(Oc3ccc(NC(=O)Nc4cc(C(C)(C)C)no4)c(F)c3)ccn2)cn1` [Example 1, 1-(3-t-butylisoxazol-5-yl)-3-(2-fluoro-4-(2-(1-methyl-1H-pyrazol-4-yl)pyridin-4-yloxy)phenyl)urea], the GI50 in test [1] was less than 100 nM. Moreover, the IC50 was less than 1000 nM in test [2] and less than 100 nM in test [3].
For the molecule `CC(C)c1cncc(NC(=O)Nc2ccc(Oc3ccnc(-c4cnn(C)c4)c3)cc2F)c1` [Example 22, 1-(2-fluoro-4-(2-(1-methyl-1H-pyrazol-4-yl)pyridin-4-yloxy)phenyl)-3-(5-isopropylpyridin-3-yl)urea], the GI50 in test [1] is less than 100 nM. Moreover, the IC50 in test [2] is less than 1000 nM; in test [3], less than 100 nM.
As for `Cn1cc(-c2cc(Oc3ccc(NC(=O)Nc4cc(C(F)(F)F)c[nH]c4=O)c(F)c3)ccn2)cn1` [Example 27, 1-(2-fluoro-4-(2-(1-methyl-1H-pyrazol-4-yl)pyridin-4-yloxy)phenyl)-3-(2-oxo-5-(trifluoromethyl)-1,2-dihydropyridin-3-yl)urea], the GI50 in test [1] is less than 100 nM. Also, the IC50 was less than 1000 nM in test [2] and less than 100 nM in test [3].
For the molecule `Cn1cc(-c2cc(Oc3ccc(NC(=O)Nc4cnn(C(C)(C)C)c4)c(F)c3)ccn2)cn1` [Example 5, 1-(1-t-butyl-1H-pyrazol-4-yl)-3-(2-fluoro-4-(2-(1-methyl-1H-pyrazol-4-yl)pyridin-4-yloxy)phenyl)urea], the GI50 in test [1] was less than 100 nM. The half-maximal inhibitory concentration (IC50) in test [2] was less than 10000 nM; in test [3], less than 100 nM.
Turning to `Cn1cc(-c2cc(Oc3ccc(NC(=O)Nc4nnc(C(C)(C)C)s4)c(F)c3)ccn2)cn1` [Example 11, 1-(5-tert-butyl-1,3,4-thiadiazol-2-yl)-3-(2-fluoro-4-(2-(1-methyl-1H-pyrazol-4-yl)pyridin-4-yloxy)phenyl)urea], the GI50 in test [1] was less than 100 nM. Also, the IC50 in test [2] is less than 10000 nM; in test [3] it was less than 100 nM.
On to `Cn1cc(-c2cc(Oc3ccc(NC(=O)Nc4cc(C(C)(C)C)no4)c(F)c3F)ccn2)cn1` [Example 25, 1-(3-tert-butylisoxazol-5-yl)-3-(2,3-difluoro-4-(2-(1-methyl-1H-pyrazol-4-yl)pyridin-4-yloxy)phenyl)urea], for which, in test [1], the GI50 was less than 100 nM. Moreover, the half-inhibitory concentration (IC50) in test [2] and in test [3] was less than 100 nM each time.
As to `Cn1cc(-c2cc(Oc3ccc(NC(=O)Nc4cnn(C(C)(C)C)c4)c(F)c3F)ccn2)cn1` [Example 8, 1-(1-tert-butyl-1H-pyrazol-4-yl)-3-(2,3-difluoro-4-(2-(1-methyl-1H-pyrazol-4-yl)pyridin-4-yloxy)phenyl)urea], the GI50 in test [1] was less than 100 nM. Moreover, the values for the IC50 in test [2] and in test [3] were less than 1000 nM and less than 100 nM, respectively.
Consider “1-(2-fluoro-4-(2-(1-methyl-1H-pyrazol-4-yl)pyridin-4-yloxy)phenyl)-3-(3-(1-methylcyclopentyl)isoxazol-5-yl)urea [Example 14]”, for which, in test [1], the GI50 was less than 100 nM. Besides, the IC50 in test [2] was less than 1000 nM; in test [3], less than 100 nM.
